Consider 1 molecule from patent publication EP1977645A1, “Insecticidal derivates of substituted phenylalkylamines” (priority 2007, dated 2008).

A short description of the data set: log P determination (acidic). It counts as physicochemical.

`CNC(=S)N1CCO/C1=N\[C@@H](C)c1ccccc1F` [compound 3, (2Z)-2-{[(1S)-1-(2-fluorophenyl)ethyl]imino}-N-methyl-1,3-oxazolidine-3-carbothioamide] gave a log partition coefficient (logP) of 3.18.
